Key:
guinea pigs = assay: blood pressure-lowering effectiveness on narcotised guinea pigs, intravenous; type: in vivo, guinea pig; conditions: for blood pressure previously: before administration
[1] = acute toxicity, intravenous; type: in vivo; conditions: mouse, in vivo, iv; read-out: Evaluated LD50-range
female NMRI-albino mice = assay: acute toxicity, intravenous; type: in vivo; conditions: mouse, in vivo
[2] = acute toxicity, p.o. and i.p. (footnote of Table VII); type: in vivo; conditions: mouse, in vivo, ip
mouse = assay: as above; type: in vivo; conditions: p.o.
[3] = test system: isolated rat aorta preparations; assay: spasmolytic effectiveness, potassium chloride-induced contractions; conditions: read-out: ED50 potassium chloride spasm
mongrel cats = assay: heart-circulation effectiveness on narcotised mongrel cats, intraduodenal administration; conditions: 5 mg/kg intraduodenal
Method: The animals were narcotised with a mixture of chloralose-urethane (1.2 g./kg. urethane+40 mg./kg. chloralose administered i.p.). They breathed spontaneously through a tracheal canula. The A. carotis sinistra was used in order to place a catheter tip monometer in the left chamber of the heart. The V. jugularis served for injection purposes. Via the A. femoralis dextra, a catheter was inserted up into the Aorta descendans and connected to a pressure recorder (Statham P 23Db). The heart frequency was recorded with a pulse frequency measurer (Firm Hugo Sachs Elektronik) from the left ventricular pressure signal. A duodenal loop was exposed by laparotomy. The substances to be tested were injected directly into the lumen.

[4] = printed on the 0 min line (= change 0 to 10 min)
[5] = printed on the 10 min line (= change 0 to 30 min)
[6] = printed on the 30 min line (= change 0 to 60 min)
[7] = printed on the 60 min line (= change 0 to 120 min)

Nc1ncnc2c1ncn2[C@H]1CO[C@H]2[C@@H]1OC[C@@H]2O[N+](=O)[O-] [1c/2c, 5-(9-Adenyl)-5-desoxy-1.4;3.6-dianhydro-L-iditol 2-nitrate]
blood pressure afterwards (guinea pigs; 0.25 mg/kg i.v.): 50.50 ± 2.33 mm. Hg
blood pressure Δ (guinea pigs; 0.25 mg/kg i.v.): -17.75 mm. Hg
blood pressure previously (guinea pigs; 0.25 mg/kg i.v.): 68.25 ± 2.50 mm. Hg
blood pressure afterwards (guinea pigs; 1.00 mg/kg i.v.): 41.50 ± 3.97 mm. Hg
blood pressure Δ (guinea pigs; 1.00 mg/kg i.v.): -28.00 mm. Hg
blood pressure previously (guinea pigs; 1.00 mg/kg i.v.): 69.50 ± 2.90 mm. Hg
blood pressure afterwards (guinea pigs; 2.50 mg/kg i.v.): 38.75 ± 2.66 mm. Hg
blood pressure Δ (guinea pigs; 2.50 mg/kg i.v.): -31.25 mm. Hg
blood pressure previously (guinea pigs; 2.50 mg/kg i.v.): 70.00 ± 2.27 mm. Hg
blood pressure-lowering effectiveness, comparison (guinea pigs; i.v.): even more effective than ISDN
LD50 at 24 h [1]: > 200 mg/kg
Frequency of death (female NMRI-albino mice): 0/6
LD50 [2]: 540 mg/kg
LD70 p.o. mouse (mouse): 1600 mg/kg
IC50 [3]: 2.8 µM
blood pressure (mongrel cats; 0 min): 124.2 ± 8.3 mm. Hg
dp/dt (mongrel cats; 0 min): 7220 ± 611 mm sec
heart frequency (mongrel cats; 0 min): 171.6 ± 6.2 min⁻¹
blood pressure (mongrel cats; 10 min): 108.6 ± 8.5 mm. Hg
dp/dt (mongrel cats; 10 min): 7500 ± 522 mm sec
heart frequency (mongrel cats; 10 min): 180.4 ± 4.3 min⁻¹
blood pressure (mongrel cats; 30 min): 107.8 ± 8.4 mm. Hg
dp/dt (mongrel cats; 30 min): 6960 ± 564 mm sec
heart frequency (mongrel cats; 30 min): 177.2 ± 5.4 min⁻¹
blood pressure (mongrel cats; 60 min): 106.6 ± 7.8 mm. Hg
dp/dt (mongrel cats; 60 min): 7100 ± 721 mm sec
heart frequency (mongrel cats; 60 min): 177.6 ± 5.1 min⁻¹
blood pressure (mongrel cats; 120 min): 106.2 ± 5.6 mm. Hg
dp/dt (mongrel cats; 120 min): 7000 ± 1026 mm sec
heart frequency (mongrel cats; 120 min): 178.8 ± 4.4 min⁻¹
blood pressure Δ (mongrel cats; [4]): -15.6 mm. Hg
dp/dt Δ (mongrel cats; [4]): +280 mm sec
blood pressure Δ (mongrel cats; [5]): -16.4 mm. Hg
dp/dt Δ (mongrel cats; [5]): -260 mm sec
blood pressure Δ (mongrel cats; [6]): -17.6 mm. Hg
dp/dt Δ (mongrel cats; [6]): -120 mm sec
blood pressure Δ (mongrel cats; [7]): -18.0 mm. Hg
dp/dt Δ (mongrel cats; [7]): -220 mm sec

Source: US4479951A, “1.4;3.6-Dianhydrohexitol nitrates substituted by purine bases, processes for their preparation and pharmaceutical compositions” (Dr. Willmar Schwabe GmbH & Co., priority 1980, dated 1984)
